The target of assay [1] is T1, Dual specificity protein phosphatase 3 (Homo sapiens, UniProt P51452). The assay is described as follows: VHR1 phosphatase inhibitors, primary screen, biochemical, absorbance, uHTS (AID 1654).
The target of assay [2] is Genome polyprotein (Hepatitis C virus, UniProt Q2Q167). The assay is described as follows: disruption of hepatitis C core self-association – biochemical, TR-FRET, dose response (AID 2159).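 Further: blocks dimerization of HCV core protein measured by TR-FRET between tagged core106 pairs.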 Further details: species or system Hepacivirus hominis.
The target in assay [3] is Voltage-gated inwardly rectifying potassium channel KCNH2 (Homo sapiens, UniProt Q12809). In words: concentration-dependent hERG rescue from blockers – cell-based, thallium flux, dose response (AID 2121). In kind it is ADME. Background: The hERG channel carries a current that helps repolarise heart muscle cells.
The target in assay [4] is T2, Dual specificity protein phosphatase 6 (Rattus norvegicus, UniProt Q64346).
T2 sequence (Q64346 whole entry): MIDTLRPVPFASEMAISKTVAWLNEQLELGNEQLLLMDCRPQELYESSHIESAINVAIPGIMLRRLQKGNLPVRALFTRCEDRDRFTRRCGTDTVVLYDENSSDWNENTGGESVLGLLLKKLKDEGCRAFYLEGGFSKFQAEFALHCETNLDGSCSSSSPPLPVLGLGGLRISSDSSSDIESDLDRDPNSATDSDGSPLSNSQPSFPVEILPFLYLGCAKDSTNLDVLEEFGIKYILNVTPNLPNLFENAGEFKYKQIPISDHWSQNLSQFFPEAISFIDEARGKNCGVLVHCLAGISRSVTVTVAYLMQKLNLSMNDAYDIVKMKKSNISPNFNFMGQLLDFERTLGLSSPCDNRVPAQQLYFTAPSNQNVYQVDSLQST
The assay is described as follows: inhibition of rat DUSP6 enzyme activity – biochemical, in vitro, primary screen (AID 425).

In assay [5] the target is Likely tRNA 2'-phosphotransferase (Candida albicans (strain SC5314 / ATCC MYA-2876) (Yeast), UniProt Q5A7N4). In words: inhibition of Candida TPT1 enzyme activity – biochemical, fluorescence polarization, dose response (AID 2160). On the technique in general: In fluorescence polarisation assays a small probe gives low polarisation when free and higher when bound to something large.

The target in assay [6] is Guanyl-specific ribonuclease T1 (Aspergillus oryzae (strain ATCC 42149 / RIB 40), UniProt P00651). In words: inhibition of ribonuclease T1 activity – biochemical, fluorescence polarization, 1536-well, counter-screen for TPT1 inhibitor project, dose response (AID 2167).
Assay [7] deals with T1, Dual specificity protein phosphatase 3. The assay is described as follows: VHR1 phosphatase inhibitors, biochemical (AID 1878).
The target in assay [8] is Beta-galactosidase (Escherichia coli, UniProt Q8VNN2). In words: Dose response counterscreen for EBI2 assay utilizing the enzyme, b-galactosidase. In kind it is functional. A general note: Counterscreens check selectivity or assay interference.
The target in assay [9] is T3, G-protein coupled receptor 183 (Homo sapiens, UniProt P32249). The assay is described as follows: SAR confirmation of small molecule antagonists of the EBI2 receptor via a luminescent beta-arrestin assa. Type of assay: functional.
Assay [10] addresses T3, G-protein coupled receptor 183. In words: Dose-response confirmation of small molecule antagonists of the EBI2 receptor via a luminescent beta-arrestin assay. Type of assay: functional.
A short description of assay [11]: BioA aminotransferase inhibition, coupled fluorescent readout – biochemical, coupled fluorescence displacement, 20-point, dry powder, dose response (AID 743357). Type of assay: functional.
Assay [12] in a line: viability loss in HEK293 cells – cell-based, luminescence, dry powder, set 12, cytotoxicity control, dose response (AID 743354). Type of assay: functional.
The nature of assay [13]: growth inhibition of yeast DHODH-expressing 3D7 parasites – SYBR Green, dry powder samples, dose response (AID 1159570).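 Further: parasite growth measured after 72 hours of compound exposure.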 In kind it is functional, cell-based.
The nature of assay [14]: toxicity to human HepG2 hepatoma cells – cell-based, plate reader, dry powder samples, cytotoxicity control, dose response (AID 1159569).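 Further: inhibitor potency with signal falling toward the positive control level.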 In kind it is functional.
Assay [15] in a line: Dd2 malaria parasite growth inhibition potency – SYBR Green, dry powder samples, dose response (AID 1159566).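 Further: potency for growth inhibition with lower SYBR green DNA signal.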 Type of assay: functional, cell-based.
Assay [16] is described as follows: growth inhibition of PfATP4-mutant resistant parasites – NITD609-resistant line, SYBR Green, dry powder, dose response (AID 1159571).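 Further: parasites synchronized at ring stage by sorbitol before testing.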 In kind it is functional, cell-based.
Assay [17] can be described thus: P. falciparum Dd2 growth inhibitors, dose response, SYBR Green, cherry-picked samples (AID 1159567). Type of assay: functional, cell-based.
Assay [18] can be described thus: Plasmodium falciparum Dd2 Sybr green parasite growth Measured in Cell-Based and Microorganism Combination System Using Plate Reader - 2153-01_Inhibitor_Dose_DryPowder_Activity_Set3. In kind it is functional.
A short description of assay [19]: antimalarial activity against Dd2 parasites – SYBR Green fluorescence, erythrocytes, dry powder, set 2, dose response (AID 1159574). Type of assay: functional, cell-based.
A short description of assay [20]: SNU-C1 cell viability reduction, dose response, CellTiter-Glo luminescence (AID 1117323). Type of assay: functional, cell-based.
Assay [21] can be described thus: RKO cell viability reduction, dose response, CellTiter-Glo luminescence (AID 1117322). Type of assay: functional.
A short description of assay [22]: CellTiter-Glo luminescence survival assay, SW480 colon tumor line, concentration-response curve, half-maximal inhibitory concentration (AID 1117338). Type of assay: functional.
Assay [23] is described as follows: cytotoxicity toward Colo320 cells – cell-based, CellTiter-Glo luminescence, IC50, dose response (AID 1117334). In kind it is functional. The note with it: COLO 320.
A short description of assay [24]: cytotoxicity toward HCT116 cells – cell-based, CellTiter-Glo luminescence, IC50, dose response (AID 1117332). In kind it is functional. The note with it: HCT-116.
Assay [25] in a line: cytotoxicity toward HT-29 cells – cell-based, CellTiter-Glo luminescence, IC50, dose response (AID 1117330). Type of assay: functional.
Assay [26] relates to Streptococcus. In words: GAS UMAA2166 growth inhibition – luminescence, BacTiterGlo, counter-screen for streptokinase expression inhibitor project, dose response (AID 1915).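 Further: potency for reduction of bacterial viability or growth.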 Type of assay: functional, organism-based.
For assay [27], the system named is HEK293. In words: EBV LMP1 TES2 canonical NF-kB signalling blockers – cell-based, HEK293, luciferase, cherry-pick, dose response (AID 588343). Particulars: Homo sapiens. In kind it is functional.
A short description of assay [28]: HCT116 cell viability decrease, GSK3B pretreatment – CellTiter-Glo, IC50, dose response (AID 1117339). In kind it is functional. The note with it: HCT-116.
Assay [29] in a line: Reduced DLD-1 viability, concentration-response, CellTiter-Glo luminescence (AID 1117352). Type of assay: functional.
Assay [30] has as its system BJ. The assay is described as follows: cells. In kind it is functional, cell-based. Particulars: Homo sapiens.
A short description of assay [31]: DRD fibroblast viability loss – cell-based, non-viral oncogenic, luminescence, dose response (AID 1934). In kind it is functional. Particulars: Homo sapiens.
Assay [32] deals with P388. In words: cells. In kind it is functional. The note with it: Mus musculus.
Assay [33] in a line: off-target signal loss in HeLa-CEM21 co-culture – HeLa F-luc CTL cells, cherry-picked, counter-screen for HIV-1 Env fusion inhibitor project, dose response (AID 652040).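 Further: potency for signal decrease marking cytotoxic or nonspecific inhibition.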 Type of assay: functional, cell-based.
The test system of assay [34] is BJ. The assay is described as follows: BJ-TERT fibroblast viability loss – cell-based, RAS-independent, luminescence, dose response (AID 1933). In kind it is functional. Particulars: Homo sapiens.
The test system of assay [35] is Streptococcus sp. 'group A'. The assay is described as follows: Streptococcus pyogenes SK(-)GAS viability under kanamycin – luminescence, BacTiterGlo, confirmation, counter-screen for streptokinase expression inhibitor project, dose response (AID 1900). Type of assay: functional, organism-based.
A short description of assay [36]: rise of 4N DNA cells, HeLa – IC50, dose response (AID 1117351). In kind it is functional, cell-based.
Assay [37] deals with BJ. The assay is described as follows: BJ-TERT-LT-ST fibroblast viability loss – cell-based, RAS-independent, luminescence, dose response (AID 1935).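 Further: BJ fibroblasts immortalized with TERT plus LT and ST oncogenes.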 In kind it is functional. Particulars: Homo sapiens.
For assay [38], the system named is P388/ADR. The assay is described as follows: cells. The note with it: Mus musculus. In kind it is functional.
Assay [39] has as its system SN12K1. The assay is described as follows: cells. In kind it is functional. The note with it: Homo sapiens.
The nature of assay [40]: rise of 2N DNA cells, HeLa – IC50, dose response (AID 1117349). In kind it is functional, cell-based.
Assay [41] can be described thus: glucagon-like peptide-1 release potency in STC-1, concentration-response, half-maximal inhibitory concentration in the STC-1 line (AID 1117345). In kind it is functional, cell-based.
The nature of assay [42]: Potency on glucagon-like peptide 1 release, dose-response in NCI-H716 cell line, half maximal inhibitory concentration (AID 1117344). In kind it is functional, cell-based.
Assay [43] can be described thus: IC50 of insulin release inhibition, rat insulinoma INS-1E line, 5 mM glucose, cell-based (AID 1117331). In kind it is functional.

The structures appear in SMILES notation. Calls of active or inactive are those of the source.

T3 sequence (P32249 whole entry): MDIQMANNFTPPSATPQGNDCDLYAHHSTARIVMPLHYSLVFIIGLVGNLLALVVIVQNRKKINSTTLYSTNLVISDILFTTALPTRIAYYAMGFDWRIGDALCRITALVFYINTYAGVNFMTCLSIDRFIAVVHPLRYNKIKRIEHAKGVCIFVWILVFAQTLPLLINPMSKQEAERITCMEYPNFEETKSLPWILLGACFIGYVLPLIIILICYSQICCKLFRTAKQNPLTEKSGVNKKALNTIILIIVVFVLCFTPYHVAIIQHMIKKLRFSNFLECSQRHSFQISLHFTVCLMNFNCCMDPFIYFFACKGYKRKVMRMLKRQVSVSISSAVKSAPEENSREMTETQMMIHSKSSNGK
T1 sequence (P51452 whole entry): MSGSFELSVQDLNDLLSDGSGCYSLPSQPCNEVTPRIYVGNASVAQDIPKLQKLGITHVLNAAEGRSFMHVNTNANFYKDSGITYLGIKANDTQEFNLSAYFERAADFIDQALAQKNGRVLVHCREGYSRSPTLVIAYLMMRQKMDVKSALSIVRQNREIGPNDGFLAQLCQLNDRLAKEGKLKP
Likely tRNA 2'-phosphotransferase, sequence (Q5A7N4 whole entry): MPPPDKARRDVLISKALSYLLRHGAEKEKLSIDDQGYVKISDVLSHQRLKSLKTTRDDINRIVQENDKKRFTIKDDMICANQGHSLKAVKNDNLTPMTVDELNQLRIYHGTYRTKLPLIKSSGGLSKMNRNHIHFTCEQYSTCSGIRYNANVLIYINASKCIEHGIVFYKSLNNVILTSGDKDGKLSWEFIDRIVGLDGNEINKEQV
Genome polyprotein, sequence (Q2Q167 whole entry): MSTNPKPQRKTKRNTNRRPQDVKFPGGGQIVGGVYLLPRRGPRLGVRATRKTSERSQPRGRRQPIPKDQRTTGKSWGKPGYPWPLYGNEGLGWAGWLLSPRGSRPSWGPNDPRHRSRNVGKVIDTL
Guanyl-specific ribonuclease T1, sequence (P00651 whole entry): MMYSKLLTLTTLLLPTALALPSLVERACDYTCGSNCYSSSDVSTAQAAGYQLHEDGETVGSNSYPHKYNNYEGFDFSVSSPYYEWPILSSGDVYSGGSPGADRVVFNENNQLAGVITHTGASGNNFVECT
Beta-galactosidase, sequence (Q8VNN2 whole entry): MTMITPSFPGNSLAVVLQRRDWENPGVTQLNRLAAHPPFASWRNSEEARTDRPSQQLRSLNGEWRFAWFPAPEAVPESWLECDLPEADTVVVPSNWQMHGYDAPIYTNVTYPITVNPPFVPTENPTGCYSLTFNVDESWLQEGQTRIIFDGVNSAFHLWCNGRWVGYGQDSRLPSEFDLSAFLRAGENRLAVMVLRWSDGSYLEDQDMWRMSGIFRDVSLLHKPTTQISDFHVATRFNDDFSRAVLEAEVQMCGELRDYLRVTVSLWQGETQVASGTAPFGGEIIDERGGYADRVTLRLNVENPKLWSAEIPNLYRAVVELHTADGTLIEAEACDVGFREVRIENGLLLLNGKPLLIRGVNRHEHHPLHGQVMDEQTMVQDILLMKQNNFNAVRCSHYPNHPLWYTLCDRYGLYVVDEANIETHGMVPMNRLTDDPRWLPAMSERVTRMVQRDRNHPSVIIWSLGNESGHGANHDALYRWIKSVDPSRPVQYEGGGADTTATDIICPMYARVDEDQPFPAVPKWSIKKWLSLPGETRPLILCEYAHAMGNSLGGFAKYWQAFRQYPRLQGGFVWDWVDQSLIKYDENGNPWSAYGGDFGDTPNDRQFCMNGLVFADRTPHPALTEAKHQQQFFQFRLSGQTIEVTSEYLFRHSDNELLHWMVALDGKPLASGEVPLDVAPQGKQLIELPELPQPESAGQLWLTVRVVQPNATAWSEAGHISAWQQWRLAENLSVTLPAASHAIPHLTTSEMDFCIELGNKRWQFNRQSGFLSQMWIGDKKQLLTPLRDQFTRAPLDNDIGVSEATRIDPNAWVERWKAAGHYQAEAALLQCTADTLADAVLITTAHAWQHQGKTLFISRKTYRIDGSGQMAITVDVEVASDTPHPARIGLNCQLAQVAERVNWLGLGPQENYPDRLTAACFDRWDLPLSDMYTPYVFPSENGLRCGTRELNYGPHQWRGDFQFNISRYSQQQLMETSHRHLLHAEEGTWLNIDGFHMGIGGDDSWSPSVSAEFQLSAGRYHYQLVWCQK
Voltage-gated inwardly rectifying potassium channel KCNH2, sequence (Q12809 whole entry): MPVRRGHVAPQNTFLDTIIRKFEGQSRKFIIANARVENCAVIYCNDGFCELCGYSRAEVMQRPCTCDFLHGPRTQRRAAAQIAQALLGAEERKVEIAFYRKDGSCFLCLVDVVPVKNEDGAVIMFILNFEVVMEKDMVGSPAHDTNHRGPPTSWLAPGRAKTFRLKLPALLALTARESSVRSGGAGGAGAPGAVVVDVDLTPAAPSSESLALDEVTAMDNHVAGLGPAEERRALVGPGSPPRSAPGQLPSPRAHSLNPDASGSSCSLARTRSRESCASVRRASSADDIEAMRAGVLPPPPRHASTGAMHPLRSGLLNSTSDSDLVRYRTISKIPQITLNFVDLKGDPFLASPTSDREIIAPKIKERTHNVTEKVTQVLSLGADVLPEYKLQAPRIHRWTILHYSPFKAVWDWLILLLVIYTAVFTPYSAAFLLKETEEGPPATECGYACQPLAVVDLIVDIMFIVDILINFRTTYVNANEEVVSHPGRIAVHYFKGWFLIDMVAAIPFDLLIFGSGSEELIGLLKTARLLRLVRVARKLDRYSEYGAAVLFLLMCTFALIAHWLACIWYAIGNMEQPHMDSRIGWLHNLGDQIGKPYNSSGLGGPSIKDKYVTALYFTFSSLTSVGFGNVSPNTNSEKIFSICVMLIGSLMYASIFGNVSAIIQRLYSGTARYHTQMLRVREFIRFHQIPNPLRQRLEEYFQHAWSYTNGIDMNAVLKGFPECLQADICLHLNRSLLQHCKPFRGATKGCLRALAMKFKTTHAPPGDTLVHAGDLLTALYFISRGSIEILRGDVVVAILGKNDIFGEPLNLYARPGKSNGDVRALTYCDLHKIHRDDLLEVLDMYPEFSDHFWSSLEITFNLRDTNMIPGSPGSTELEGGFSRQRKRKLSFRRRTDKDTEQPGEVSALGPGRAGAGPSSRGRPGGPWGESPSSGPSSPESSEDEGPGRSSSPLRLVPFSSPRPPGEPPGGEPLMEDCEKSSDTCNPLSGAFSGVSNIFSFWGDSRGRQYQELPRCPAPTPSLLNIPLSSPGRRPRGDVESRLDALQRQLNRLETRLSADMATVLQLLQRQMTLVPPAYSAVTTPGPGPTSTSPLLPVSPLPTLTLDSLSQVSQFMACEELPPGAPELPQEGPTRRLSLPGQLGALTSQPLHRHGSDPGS

For orientation: IC50 means the midpoint of a concentration-inhibition curve. The term EC50 denotes the concentration at which the effect is half-maximal. As to `Cc1ccccc1N1C(=O)/C(=C/c2ccco2)C(=O)NC1=S`, the IC50 is < 1230 nM (inactive) in assay [1]; 4780 nM (active) in [2]; < 1230 nM (not active) in assay [4]; 2440 nM (active) in [5]; > 55700 nM (not active) in assay [6]; < 1230 nM (inactive) in [7]. Also, in assay [3], the concentration giving a half-maximal response (EC50) was 710 nM (active).

For `O=C(/C=C/c1ccc(F)cc1)N1CCN(S(=O)(=O)/C=C/c2ccccc2)CC1`, the IC50 is > 80000 nM (inactive) in [8], 3.59 nM (active) in assay [9] and 6.75 nM (active) in assay [10].

Usually AC50 stands for the midpoint of the concentration-response curve, whichever way the signal moves. Take `CN1c2ccc(-c3cccc(F)c3)cc2[C@H]2[C@H](CCN2C(=O)CCCCCCN)[C@H]1CO`: the results for the concentration at half-maximal activity (AC50) in [11] and in assay [12] were 13000 nM (active) and > 52000 nM (inactive), respectively.

As to `CO[C@@H]1CN(C)C(=O)c2ccc(NC(=O)C3CC3)cc2OC[C@@H](C)N(Cc2cc(F)ccc2F)C[C@H]1C`, the half-maximal activity concentration (AC50) was 5770 nM (active) in [13]; 76200 nM (active) in assay [14]; 957 nM (active) in assay [15]; 1790 nM (active) in [16]; 1220 nM (active) in assay [17]; 2080 nM (active) in [18].

On to `COc1ccc(NC(=O)N2CCCCN3[C@H](CO)[C@H](c4ccc(C#Cc5ccccc5)cc4)[C@@H]3C2)cc1`, for which the AC50 in [13] was 3.46 nM (active); in assay [14] it was 85100 nM (active); in assay [19], 6.52 nM (active); in assay [15], 3.84 nM (active); in assay [16] it was 3.09 nM (active); in assay [17] it was < 300 nM (active).

The GI50 is the concentration giving 50% growth inhibition. `O=c1[nH]c(=O)n([C@H]2C[C@H](O)[C@@H](CO)O2)cc1F` [FLOXURIDINE]: the IC50 in [20] was > 20000 nM (inactive); in assay [21], 1 nM (active); in assay [22], > 20000 nM (inactive); in assay [23] it was > 20000 nM (inactive); in [24] it was 1 nM (active); in assay [25], > 20000 nM (inactive). Also, the concentration for half-maximal inhibition (IC50) in assay [28] is 1 nM (active); in assay [29], 1 nM (active); in assay [36] it was > 10000 nM (inactive); in [40], > 10000 nM (inactive). Further, the EC50 in [26] was 1340 nM (active); in assay [30] it was 596 nM (active); in [31], > 150000 nM (not active); in [34], 57000 nM (active); in [35], 916 nM (active); in assay [37], > 150000 nM (inconclusive). The AC50 in assay [27] was 61.9 nM (active); in [33], > 70000 nM (inactive). Moreover, the concentration for 50% growth inhibition (GI50) in assay [32] is 250 nM (active); in assay [38], 250 nM (active); in [39], 340 nM (active).

Consider `NC(=O)c1cccnc1` [NIACINAMIDE], for which the IC50 is > 40000 nM (inactive) in assay [41], > 40000 nM (inactive) in [42] and > 33300 nM (inactive) in assay [43].
